In patent US20200339544A1 (JOINT STOCK COMPANY "BIOCAD", priority 2017, published 2020):
Read-outs that look alike come from different tables or passages of the source.

Key:
[1] = Chemical stability in simulated intestinal fluid (SIF); format: physicochemical; conditions: SIF without enzymes, pH 6.5; 10 μm; 2 hours at 37° C.; substance amount remaining
Summary of the method: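 Compound at 10 μm (diluted from 10 mM DMSO stock) incubated 2 h at 37° C in enzyme-free SGF, pH=1,4, or enzyme-free SIF, pH=6.5. HPLC peak areas before and after incubation give % compound remaining.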

[2] = Chemical stability in human blood plasma; format: in vitro ADME; conditions: pooled human blood plasma; 10 μm; 4 hours at 37° C.; substance amount remaining
Summary of the method: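 Percent of parent remaining was derived by comparing HPLC peak areas at time zero and after 4 h at 37 °C. Test compound was at 10 μM in human plasma pooled from ten donors, and proteins were precipitated with acetonitrile before analysis.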

[3] = Permeability through monolayer of Caco-2 cells; format: in vitro ADME; conditions: human, Caco-2 monolayer; for Papp A→B at 2 h, 10 µM: pH 6.5 upper / pH 7.4 lower, 2 h at 37° C.; for efflux ratio at 2 h, 10 µM: Papp B-A/Papp A-B
From the text: 2) Assessment of permeability through monolayer of Caco-2 cells.
Assessment of permeability through the monolayer of Caco-2 cells allows to evaluate the ability of the candidate compounds to penetrate through biological membranes by active and passive transport.
Caco-2, the cells of the intestinal epithelium, had been cultured in transwell plate inserts with the filters (with pores of 0.4 μm, BD Falcon with High Density) for 21 days, and then the integrity of the monolayer were estimated with Lucifer Yellow (Sigma-Aldrich, USA) by standard protocol. When setting the A→B transfer (“intestinal lumen”—“blood stream” transfer), solutions of test substances were added in a buffer with pH 6.5 (HBSS, 10 mM HEPES, 15 mM glucose solution) with the concentration of 10 μM into the upper chamber; the lower chamber was filled with a buffer with pH 7.4 (HBSS, 10 mM HEPES, 15 mM Glucose, 1% BSA). When setting B→A transfer (“blood stream”—“intestinal lumen” transfer), the upper chamber was filled with the buffer with pH 6.5, and solutions of the test substances were added in the buffer with pH 7.4 at the concentration of 10 μM in the lower chamber. Propranolol was used as a control substance (as it has high permeability).
After incubating for 2 h at 37° C. under 5% CO2, the amounts of test substances were determined in the upper and lower chambers by HPLC using Agilent1200 chromatograph (Agilent, USA) with preliminary protein precipitation with acetonitrile. We used gradient elution (1 mL/min flow rate). We determined the areas of peaks corresponding to the compounds. On the basis of peak areas in the calibration standards we determined the concentration of compound in the initial solution and in the samples from the wells of the upper and lower chambers. Papp, permeability through the cell layer, was calculated using the following formula:
Papp=(C(t)*V)/(C(0)*t*Area), wherein
The value was calculated with the following formula:
efflux=Papp B-A/Papp A-B, wherein • Papp A-B—the volume of permeability in A→B test; • Papp B-A—he volume of permeability in B→A test.

[4] = tested on: H1975 (lung adenocarcinoma, DM, L828R/T790M); test: Antiproliferative activity on H1975 cells (Alamar Blue); format: cell-based; conditions: for IC50: Homo sapiens, NCI-H1975, H1975 cells; for SI IC50(A549)/IC50(DM): selectivity index, A549 vs H1975 cells
Summary of the method: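 IC50 was fitted with a four-parameter logistic model to Alamar Blue fluorescence (540/590 nm), read 3-5 h after dye addition. Before that, compounds acted on attached H1975 cells, 15*10^3 per well in 2% FBS RPMI-1640, for 72 h at 37 °C, DMSO no more than 1%.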

[5] = average values obtained in several tests, Table 16, read-out: H1975 (DM) IC50
[6] = antiproliferative test, Table 15, read-out: IC50 H1975 (DM)

Stability in SIF, % [1] [%] | Stability in blood plasma, % [2] [%] | Papp A→B at 2 h, 10 µM [3] [×10⁻⁶ cm/s] | efflux ratio at 2 h, 10 µM [3] | IC50 [4, 5] [nM] | IC50 [4, 6] [nM] | Structure (SMILES) | SI IC50(A549)/IC50(DM) [4]
100.0 | 100.0 | 4.9 | 1 | 2 | 5.79 | C=CC(=O)Nc1cc(Nc2nccc(C(=O)c3ccc(N4CCCC4)cc3)n2)c(OC)cc1N(C)CCN(C)C [EGFR_3365_63, N-(2-((2-(dimethylamino)ethyl)(methyl)amino)-4-methoxy-5-((4-(4-(pyrrolidin-1-yl)benzoyl)pyrimidin-2-yl)amino)phenyl)acrylamide] | 5383
98.5 | 89.0 | 2 | 0.3 | 47.5 | 47.5 | C=CC(=O)Nc1cc(Nc2cc(C(=O)c3ccc(OCCC)cc3)ccn2)c(OC)cc1N(C)CCN(C)C [EGFR_3365_50, N-(2-((2-(dimethylamino)ethyl)(methyl)amino)-4-methoxy-5-((4-(4-propoxybenzoyl)pyridin-2-yl)amino)phenyl)acrylamide] | 104
100.0 | 82.1 | 5.9 | 0.8 | 44.5 | 44.5 | C=CC(=O)Nc1cc(Nc2cc(C(=O)c3ccccc3)ccn2)c(OC)cc1N(C)CCN(C)C [EGFR_3365_3, N-(5-((4-benzoylpyridin-2-yl)amino)-2-((2-(dimethylamino)ethyl)(methyl)amino)-4-methoxyphenyl)acrylamide] | 136.32
